Laboratory results as given in paper PMC12288609 (Bioorganic & medicinal chemistry letters, 2024).
Read-outs that look alike come from different tables or passages of the source. Marks after values point to notes of the source that are not given here.

What was measured:
[1] = system: HUVECs; details: cited from earlier work; for Tube formation IC50: endothelial cell tube formation assay, n.i. = no inhibition, tested at 10–100 μM without significant antiangiogenic activity
[2] = IAM chromatography, chromatographic hydrophobicity index; format: physicochemical; details: pH 7.4 mobile phase
Description: Before determining neosubstrate degradation, an obvious effect of fluorination was experimentally specified in this study, i.e., the alteration of lipophilicity. Distribution coefficients at pH 7.4 were determined by an HPLC-based method.[14] As expected, the lipophilicity (elogD7.4) increased due to the introduction of fluorine, and elogD differences were in the range of 0.8 to 1.2 (Table 1). […] The exchange of the glutarimide in 1, 2, 5, and 6 by the barbituric acid unit in 3, 4, 7, and 8 increased lipophilicity by elogD differences of 1.3 to 1.7. Drug-membrane interactions were assessed by a high-throughput HPLC method on an Immobilized Artificial Membrane (IAM) column consisting of monolayers of phospholipids covalently bound to silica particles.[15]
[16] IAM chromatography was performed with a Regis IAM.PC.DD2 column (100 × 4.6 mm, 10 μm, 300 Å) equipped with a guard cartridge at 25 °C as described.[14] Mobile phase A was 50 mM NH4OAc, pH 7.4, mobile phase B was MeCN. The retention times were determined with a gradient of 0 to 95% MeCN from 0 to 6 min, which was kept at 95% until 6.5 min, then dropped to 0% from 6.5 to 7 min, and finally kept at 0% until 9 min. The mobile phase flow rate was 1.5 mL/min. A calibration was performed by plotting the retention times of paracetamol, acetanilide, acetophenone, propiophenone, butyrophenone, valerophenone, and octanophenone against their literature CHI values.[15].

[3] = system: HUVECs; experiment: CCK-8 cell proliferation assay, HUVEC; format: cell-based, human; details: 48 h
Description: (§1) HUVEC cells were cultured as described.[13]
(§2) [19] For the cell proliferation assay, HUVEC (15,000 cells/well) and MM1.S (20,000 cells/well) cells were seeded in a 96-well plate in 50 μL/well and allowed to incubate overnight at 37 °C in 5% CO2. An equal amount of treatment media containing the vehicle (0.5% DMSO), or the test compound was then plated on top of the seeded for 48 hours (HUVEC) or 72 hours (MM1.S). Cell proliferation was evaluated by adding 10 μL of Cell Counting Reagent-8 (CCK-8; Dojindo Laboratories, Rockville, MD) to each well and incubated for 2 hours. Plates were read at absorbance of 450 nm on a microplate reader (SpectraMax iD3, Molecular Devices, San Jose, CA).

[4] = biological target: human TBD (residues 319–425 of human CRBN); set-up: method as in PMID 33310190; details: affinity to human TBD, n.b. = no significant CRBN binding, cited from earlier work
[5] = Distribution coefficient at pH 7.4 by HPLC-based method; format: physicochemical; details: pH 7.4, estimated by an HPLC-based method; for chromatographic logD: HPLC-based method (chromatographic retention), read-out: elogD7.4
[6] = system: multiple myeloma MM1.S cells; experiment: CCK-8 cell proliferation assay, MM1.S; format: cell-based; details: 10 μM, 72 h
Description: as §1, §2

[7] = biological target: SALL4 (Homo sapiens, UniProt Q96SW2+Q9UJQ4); experiment: SALL4 degradation in HuH6 cells, Western blot; details: 16 h; for Neosubstrate degradation (%) SALL4: 1.0 μM, Western blot densitometry normalized to DMSO; for SALL4 degradation (Western blot, in words): 1.0 μM (0.1 μM in Fig. S2)
[8] = system: HUVECs; experiment: Endothelial cell tube formation assay
[9] = biological target: IKZF3 (Homo sapiens, UniProt Q96SW2+Q9UKT9); experiment: IKZF3 degradation in MM.1S cells, Western blot; details: 16 h; for Neosubstrate degradation (%) IKZF3: 1.0 μM, Western blot densitometry normalized to DMSO; for IKZF3 degradation (Western blot, in words): 1.0 μM (0.1 μM in Fig. S2)
[10] = Metabolic stability in human liver microsomes
Description: Metabolic stability analyses in human liver microsomes were performed by Pharmacelsus (Saarbrücken, Germany) as described.[14].

[11] = cited from earlier work
[12] = biological target: IKZF3-GFP fusion protein (Homo sapiens, UniProt Q96SW2+Q9UKT9); details: MM.1S cells, 16 h, 0.1 μM, 1.0 μM and 10 μM
Description: This method distinguished direct effects on protein degradation from effects that regulate transcriptional expression.
In brief, the plasmid comprised the IMiD-binding zinc finger 2 (ZF2) of IKZF3 fused to eGFP with mCherry in vector backbone. MM.1S cells were lentivirally transduced with the IKZF3-ZF2 reporter and treated with respective compounds for 16 hours. Flow cytometry was performed for the quantification of eGFP and mCherry mean fluorescence intensity. The eGFP/mCherry ratio was indicative of IKZF3-ZF2 degradation levels. Compound-treated samples were normalized to DMSO-treated samples. Data was obtained with biological replicates (n=3) and representmean± SD.
The Artichoke reporter assay was performed as described.[14] Briefly, HEK293T cells were transfected and virus was harvested. MM1.S cells were transduced and treated with the test compounds. Cells were measured on a Cytoflex (Beckman Coulter) flow cytometer. Live single cells expressing mCherry were gated for FITC and histograms displaying counts were plotted and quantified.

[13] = Homo sapiens, HUVEC, 18 h, read-out: Inhibition of tube formation (%)

Chain of SALL4 (Q9UJQ4 whole entry): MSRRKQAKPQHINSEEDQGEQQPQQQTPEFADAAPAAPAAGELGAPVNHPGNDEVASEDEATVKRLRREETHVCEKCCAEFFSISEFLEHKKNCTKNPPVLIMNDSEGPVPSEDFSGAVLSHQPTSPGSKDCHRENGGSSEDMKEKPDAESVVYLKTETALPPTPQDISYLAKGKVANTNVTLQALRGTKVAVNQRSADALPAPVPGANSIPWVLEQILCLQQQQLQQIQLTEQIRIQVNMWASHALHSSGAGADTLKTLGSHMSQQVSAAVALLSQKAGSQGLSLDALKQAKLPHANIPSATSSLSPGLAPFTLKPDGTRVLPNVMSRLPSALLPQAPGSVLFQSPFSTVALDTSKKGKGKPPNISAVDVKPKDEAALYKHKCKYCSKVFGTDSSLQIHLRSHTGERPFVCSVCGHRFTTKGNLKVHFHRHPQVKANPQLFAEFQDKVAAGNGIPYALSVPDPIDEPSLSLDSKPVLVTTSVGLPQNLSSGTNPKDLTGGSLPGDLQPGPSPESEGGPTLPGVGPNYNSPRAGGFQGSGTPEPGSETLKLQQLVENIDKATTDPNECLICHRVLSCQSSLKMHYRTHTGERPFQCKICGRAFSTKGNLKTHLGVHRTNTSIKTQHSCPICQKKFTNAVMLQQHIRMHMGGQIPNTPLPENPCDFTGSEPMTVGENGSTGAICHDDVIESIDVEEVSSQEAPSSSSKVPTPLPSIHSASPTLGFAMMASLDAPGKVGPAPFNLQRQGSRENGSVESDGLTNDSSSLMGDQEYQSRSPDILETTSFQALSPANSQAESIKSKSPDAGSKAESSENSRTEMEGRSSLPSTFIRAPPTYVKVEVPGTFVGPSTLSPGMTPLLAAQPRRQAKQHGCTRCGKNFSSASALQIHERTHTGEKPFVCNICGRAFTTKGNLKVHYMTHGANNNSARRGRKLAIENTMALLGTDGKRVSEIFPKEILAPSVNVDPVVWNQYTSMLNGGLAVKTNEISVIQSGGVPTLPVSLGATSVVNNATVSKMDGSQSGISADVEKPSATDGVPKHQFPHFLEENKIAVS
Chain of SALL4 (Q96SW2 whole entry): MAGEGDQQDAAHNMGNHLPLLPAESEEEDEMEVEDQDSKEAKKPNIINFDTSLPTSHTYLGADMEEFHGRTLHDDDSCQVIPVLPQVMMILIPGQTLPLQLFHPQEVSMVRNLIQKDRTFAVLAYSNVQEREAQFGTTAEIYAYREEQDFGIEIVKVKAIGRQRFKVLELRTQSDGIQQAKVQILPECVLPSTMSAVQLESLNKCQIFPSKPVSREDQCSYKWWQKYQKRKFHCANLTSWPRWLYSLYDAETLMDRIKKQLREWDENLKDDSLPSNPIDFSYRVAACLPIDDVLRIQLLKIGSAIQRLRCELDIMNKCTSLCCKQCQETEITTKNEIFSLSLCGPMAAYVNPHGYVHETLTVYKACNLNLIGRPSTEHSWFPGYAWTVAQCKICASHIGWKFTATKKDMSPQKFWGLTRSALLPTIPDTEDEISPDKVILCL
Chain of SALL4 (Q16531 whole entry partner): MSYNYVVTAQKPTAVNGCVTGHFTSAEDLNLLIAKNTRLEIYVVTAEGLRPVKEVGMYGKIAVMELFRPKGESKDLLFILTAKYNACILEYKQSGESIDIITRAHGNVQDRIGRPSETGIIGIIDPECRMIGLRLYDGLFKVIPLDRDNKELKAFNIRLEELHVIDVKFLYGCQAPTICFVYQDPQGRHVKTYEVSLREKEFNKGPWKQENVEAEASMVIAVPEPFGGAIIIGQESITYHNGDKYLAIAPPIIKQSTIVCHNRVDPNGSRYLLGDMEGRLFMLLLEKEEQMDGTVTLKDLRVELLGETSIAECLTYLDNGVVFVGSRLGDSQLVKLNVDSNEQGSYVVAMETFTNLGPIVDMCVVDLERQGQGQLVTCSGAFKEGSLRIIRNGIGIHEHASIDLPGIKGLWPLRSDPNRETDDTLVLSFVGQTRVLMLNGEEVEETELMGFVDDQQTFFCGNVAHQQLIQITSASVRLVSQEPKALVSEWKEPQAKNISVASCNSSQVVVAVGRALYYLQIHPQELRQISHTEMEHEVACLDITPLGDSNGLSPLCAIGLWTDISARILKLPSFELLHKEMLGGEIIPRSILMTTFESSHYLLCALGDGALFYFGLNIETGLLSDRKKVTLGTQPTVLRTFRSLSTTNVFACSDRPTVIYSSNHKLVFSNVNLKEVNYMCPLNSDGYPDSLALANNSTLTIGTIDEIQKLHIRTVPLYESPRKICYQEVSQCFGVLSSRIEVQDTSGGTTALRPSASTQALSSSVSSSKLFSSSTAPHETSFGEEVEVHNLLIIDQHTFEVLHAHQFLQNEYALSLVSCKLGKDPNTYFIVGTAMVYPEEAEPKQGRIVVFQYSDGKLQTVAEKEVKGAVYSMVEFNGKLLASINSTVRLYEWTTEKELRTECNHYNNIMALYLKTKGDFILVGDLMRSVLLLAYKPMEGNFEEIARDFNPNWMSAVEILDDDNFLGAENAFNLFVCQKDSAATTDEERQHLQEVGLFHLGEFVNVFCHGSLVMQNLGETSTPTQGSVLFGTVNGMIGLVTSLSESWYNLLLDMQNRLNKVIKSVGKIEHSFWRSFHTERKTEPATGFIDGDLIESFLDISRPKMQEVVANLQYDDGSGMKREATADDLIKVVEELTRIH
Chain of SALL4 (Q13619 whole entry partner): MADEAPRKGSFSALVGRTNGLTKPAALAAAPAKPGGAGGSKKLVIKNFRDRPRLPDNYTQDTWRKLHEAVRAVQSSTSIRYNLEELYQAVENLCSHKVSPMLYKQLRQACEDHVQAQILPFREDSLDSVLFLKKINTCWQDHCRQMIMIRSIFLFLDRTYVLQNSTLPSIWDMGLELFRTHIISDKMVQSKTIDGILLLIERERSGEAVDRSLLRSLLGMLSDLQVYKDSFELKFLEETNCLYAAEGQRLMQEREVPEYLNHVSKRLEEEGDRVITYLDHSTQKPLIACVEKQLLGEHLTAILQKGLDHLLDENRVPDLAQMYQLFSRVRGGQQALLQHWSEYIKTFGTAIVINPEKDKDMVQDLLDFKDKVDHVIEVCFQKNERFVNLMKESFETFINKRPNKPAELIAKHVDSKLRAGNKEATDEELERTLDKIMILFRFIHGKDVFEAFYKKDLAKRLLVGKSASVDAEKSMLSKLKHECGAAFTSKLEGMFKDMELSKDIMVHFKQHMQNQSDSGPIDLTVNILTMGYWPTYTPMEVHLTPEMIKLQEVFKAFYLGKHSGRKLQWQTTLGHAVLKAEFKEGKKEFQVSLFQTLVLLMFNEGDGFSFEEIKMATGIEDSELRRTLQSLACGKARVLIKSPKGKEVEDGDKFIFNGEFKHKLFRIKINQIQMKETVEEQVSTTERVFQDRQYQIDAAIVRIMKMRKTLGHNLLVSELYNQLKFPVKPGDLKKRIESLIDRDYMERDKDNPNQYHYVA
Chain of SALL4 (P62877 whole entry partner): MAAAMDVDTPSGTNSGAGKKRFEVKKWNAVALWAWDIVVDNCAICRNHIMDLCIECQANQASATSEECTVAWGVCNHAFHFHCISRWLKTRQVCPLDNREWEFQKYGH
Chain of IKZF3 (Q9UKT9 whole entry): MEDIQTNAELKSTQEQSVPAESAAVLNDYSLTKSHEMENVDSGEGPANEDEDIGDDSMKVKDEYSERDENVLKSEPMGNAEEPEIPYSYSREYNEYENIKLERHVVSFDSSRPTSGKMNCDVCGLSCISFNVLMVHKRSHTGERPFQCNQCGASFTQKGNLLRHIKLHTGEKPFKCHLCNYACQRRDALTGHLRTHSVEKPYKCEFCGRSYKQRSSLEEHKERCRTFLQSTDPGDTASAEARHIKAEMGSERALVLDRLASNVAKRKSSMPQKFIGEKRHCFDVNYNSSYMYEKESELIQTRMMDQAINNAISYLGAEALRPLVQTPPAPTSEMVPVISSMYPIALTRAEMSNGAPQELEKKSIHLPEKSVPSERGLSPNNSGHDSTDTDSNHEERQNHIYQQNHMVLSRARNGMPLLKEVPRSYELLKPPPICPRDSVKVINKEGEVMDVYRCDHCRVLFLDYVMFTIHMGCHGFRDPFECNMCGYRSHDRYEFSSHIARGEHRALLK
Chain of IKZF3 (Q96SW2 whole entry): as the sequence (Q96SW2 whole entry) above
Chain of IKZF3 (Q16531 whole entry partner): as the sequence (Q16531 whole entry partner) above
Chain of IKZF3 (Q13619 whole entry partner): as the sequence (Q13619 whole entry partner) above
Chain of IKZF3 (P62877 whole entry partner): as the sequence (P62877 whole entry partner) above
Chain of IKZF3-GFP fusion protein (Q9UKT9 146-168 limits assumed): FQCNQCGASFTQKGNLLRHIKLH
Chain of IKZF3-GFP fusion protein (Q96SW2 whole entry, the tested form may be a part): as the sequence (Q96SW2 whole entry) above
Chain of IKZF3-GFP fusion protein (Q16531 whole entry partner, the tested form may be a part): as the sequence (Q16531 whole entry partner) above
Chain of IKZF3-GFP fusion protein (Q13619 whole entry partner, the tested form may be a part): as the sequence (Q13619 whole entry partner) above
Chain of IKZF3-GFP fusion protein (P62877 whole entry partner, the tested form may be a part): as the sequence (P62877 whole entry partner) above

O=C1CCC(N2C(=O)c3ccccc3C2=O)C(=O)N1 (stereo not shown) [Compound 1, thalidomide, reference compound]
Block of tube formation ([1]; concentration range 12.5–100 μM): failed to significantly block tube formation
Tube formation IC50 [1]: n.i.^h
CHIIAM [2]: 12.5
Effect on HUVEC proliferation ([3]; 100 μM): decreased neither HUVEC proliferation
Ki ([4]; read-out: MST Ki): 8.55 µM
chromatographic logD [5]: 0.5

O=C1CCC(N2C(=O)c3c(F)c(F)c(F)c(F)c3C2=O)C(=O)N1 (stereo not shown) [Compound 2, Tetrafluoro-thalidomide]
Reduction of MM1.S growth [6]: 95%
Neosubstrate degradation (%) SALL4 [7]: <5%
Antiangiogenic activity in the tube formation assay ([8]; 10 μM, HUVECs): significantly inhibited tubule formation
inhibition at 10 µM [8, 13]: 95.3%
CHIIAM [2]: 17.8
Reduction of HUVEC growth ([3]; 10 μM): 48%
Neosubstrate degradation (%) IKZF3 [9]: <5%

CC(C)N1C(=O)NC(=O)C(C)(N2C(=O)c3ccccc3C2=O)C1=O (stereo not shown) [Compound 3]
Tube formation IC50 [1]: n.i.
Effect on MM1.S cell growth [6]: did not affect HUVEC or MM1.S cell growth
Neosubstrate degradation (%) SALL4 [7]: <5%
CHIIAM [2]: 28.9
Effect on HUVEC cell growth ([3]; 10 μM): did not affect HUVEC or MM1.S cell growth
half-life [10]: > 1 h
microsomal CLint at 1 h [10]: 10.3 µL/min/mg
Neosubstrate degradation (%) IKZF3 [9]: 11%
MST Ki [4]: n.b.^i
chromatographic logD [5]: 2.2

CC(C)N1C(=O)NC(=O)C(C)(N2C(=O)c3c(F)c(F)c(F)c(F)c3C2=O)C1=O (stereo not shown) [Compound 4]
Reduction of MM1.S growth [6]: > 95%
Neosubstrate degradation (%) SALL4 [7]: <5%
CHIIAM [2]: 31.6
Reduction of HUVEC growth ([3]; 10 μM): > 95%
half-life [10]: > 1 h
microsomal CLint at 1 h [10]: 4.6 µL/min/mg
Neosubstrate degradation (%) IKZF3 [9]: <5%
MST Ki [4]: n.b.
elogD7.4 [5]: 3.0

O=C1CCC(NC(=O)c2ccccc2)C(=O)N1 (stereo not shown) [Compound 5]
elogD7.4 ([11]; pH 7.4): −0.3^j

O=C1CCC(NC(=O)c2cc(F)c(F)c(F)c2F)C(=O)N1 (stereo not shown) [Compound 6]
elogD7.4 ([11]; pH 7.4, HPLC-based method): 0.9^j

CC(C)N1C(=O)NC(=O)C(C)(NC(=O)c2ccccc2)C1=O (stereo not shown) [Compound 7]
Tube formation IC50 [1]: n.i.
Neosubstrate degradation (%) SALL4 [7]: <5%
CHIIAM [2]: 20.9
Neosubstrate degradation (%) IKZF3 [9]: <5%
MST Ki [4]: n.b.
chromatographic logD [5]: 1.2

CC(C)N1C(=O)NC(=O)C(C)(NC(=O)c2cc(F)c(F)c(F)c2F)C1=O (stereo not shown) [Compound 8]
Tube formation IC50 [1]: n.i.
Neosubstrate degradation (%) SALL4 [7]: <5%
CHIIAM [2]: 27.9
Neosubstrate degradation (%) IKZF3 [9]: <5%
MST Ki [4]: n.b.
chromatographic logD [5]: 2.2

O=C1CCC(NC(=O)c2ccccc2F)C(=O)N1 (stereo not shown) [Compound 9, N-(2,6-Dioxo-3-piperidyl)-2-fluorobenzamide]
inhibition at 100 µM [8, 13]: 13.4%
CHIIAM [2]: 5.7
chromatographic logD [5]: -0.1

O=C1CCC(NC(=O)c2cccc(F)c2)C(=O)N1 (stereo not shown) [Compound 10, N-(2,6-Dioxo-3-piperidyl)-3-fluorobenzamide]
inhibition at 100 µM [8, 13]: 10.3%
CHIIAM [2]: 10.6
chromatographic logD [5]: 0.1

O=C1CCC(NC(=O)c2ccc(F)cc2)C(=O)N1 (stereo not shown) [Compound 11, N-(2,6-Dioxo-3-piperidyl)-4-fluorobenzamide]
inhibition at 100 µM [8, 13]: 17.9%
CHIIAM [2]: 10.1
chromatographic logD [5]: 0.1

O=C1CCC(NC(=O)c2cccc(F)c2F)C(=O)N1 (stereo not shown) [Compound 12]
inhibition at 100 µM [8, 13]: 31.1%
CHIIAM [2]: 7.6
chromatographic logD [5]: 0.3

O=C1CCC(NC(=O)c2ccc(F)cc2F)C(=O)N1 (stereo not shown) [Compound 13]
inhibition at 100 µM [8, 13]: 35.8%
CHIIAM [2]: 7.2
chromatographic logD [5]: 0.3

O=C1CCC(NC(=O)c2cc(F)ccc2F)C(=O)N1 (stereo not shown) [Compound 14]
inhibition at 100 µM [8, 13]: 24.2%
CHIIAM [2]: 7.2
chromatographic logD [5]: 0.3

O=C1CCC(NC(=O)c2cc(F)cc(F)c2)C(=O)N1 (stereo not shown) [Compound 15]
inhibition at 100 µM [8, 13]: 44.3%
CHIIAM [2]: 12.3
chromatographic logD [5]: 0.6

O=C1CCC(NC(=O)c2ccc(F)c(F)c2)C(=O)N1 (stereo not shown) [Compound 16]
inhibition at 100 µM [8, 13]: 15.5%
CHIIAM [2]: 13.6
chromatographic logD [5]: 0.6

O=C1CCC(NC(=O)c2ccc(F)c(F)c2F)C(=O)N1 (stereo not shown) [Compound 17]
inhibition at 100 µM [8, 13]: 30.3%
CHIIAM [2]: 12.2
chromatographic logD [5]: 0.7

O=C1CCC(NC(=O)c2cc(F)c(F)cc2F)C(=O)N1 (stereo not shown) [Compound 18]
Inhibition of tube formation (%) ([8]; 100 μM, 18 h, HUVECs, relative to vehicle control, n.i. = no inhibition): n.i.^d
CHIIAM [2]: 11.0
chromatographic logD [5]: 0.6

O=C1CCC(NC(=O)c2cc(F)c(F)c(F)c2)C(=O)N1 (stereo not shown) [Compound 19]
inhibition at 100 µM [8, 13]: 8.1%
CHIIAM [2]: 17.9
chromatographic logD [5]: 1

N#Cc1ccc(N2CCN(Cc3ccc(COc4cccc5c4CN([C@H]4CCC(=O)NC4=O)C5=O)cc3)CC2)c(F)c1 [mezigdomide, reference compound]
Abundance of IKZF3-GFP (eGFP/mCherry ratio, DMSO-normalized) [12]: induced to a greater extent
SALL4 degradation (Western blot, in words) [7]: degraded IKZF3 and SALL4
IKZF3 degradation (Western blot, in words) [9]: degraded IKZF3 and SALL4

Nc1cccc2c1C(=O)N(C1CCC(=O)NC1=O)C2=O (stereo not shown) [pomalidomide, reference compound]
Abundance of IKZF3-GFP (eGFP/mCherry ratio, DMSO-normalized) [12]: induced to a greater extent
SALL4 degradation (Western blot, in words) [7]: degraded IKZF3 and SALL4
IKZF3 degradation (Western blot, in words) [9]: degraded IKZF3 and SALL4
